Assay results: patent publication US5360796A, “Imidazo[1,2-a]pyridinylalkyl phosphonic acid compounds for treatment of neurotoxic injury” (G. D. Searle & Co., priority 1991, dated 1994)
pKi: −log10 of the molar value. Structures can show the parent of a compound that is named as a salt. Where two headings read alike, the source gives them in different places.

Tests used:
NMDA receptor = assay: NMDA-Selective Glutamate Binding Assay (L-[3H]glutamate); design: species or system rat; details: 12.5 nM L-[3H]glutamate, synaptic plasma membranes, read-out: NMDA Receptor Binding Data, Ki IC50 Binding NMDA
Description: (§1) Synaptic plasma membranes (SPM) were prepared as previously described [Monahah, J. B. and Michel, J., "Identification and Characterization of an N-methyl-D-aspartate-specific L[^3 H]glutamate Recognition Site in Synaptic Plasma Membranes, J. Neurochem., 48, 1699-1708 (1987)]. The SPM were stored at a concentration of 10-15 mg/ml in 0.32M sucrose, 0.5 mM EDTA, 1 mM MgSO4, 5 mM Tris/SO4, pH 7.4, under liquid nitrogen. The identity and purity of the subcellular fractions were confirmed by both electron microscopy and marker enzymes. Protein concentrations were determined by using a modification of the method of Lowry [Ohnishi, S. T. and Barr, J. K., "A Simplified Method of Quantitating Proteins using the Biuret and Phenol Reagents", Anal. Biochem., 86, 193-197 (1978)]. The SPM were treated identically for the [^3 H]AMPA (QUIS), [^3 H]kainate and sodium-dependent L-[^3 H]-glumatate binding assays. The SPM were thawed at room temperature, diluted twenty-fold with 50mM Tris/acetate, pH 7.4, incubated at 37° C. for 30 minutes, and centrifuged at 100,000 g for 15 minutes. The dilution, incubation, and centrifugation was repeated a total of three times. Prior to use in the NMDA-specific L-[^3 H]-glutamate binding assay the SPM were thawed, diluted twenty fold with 50 mM Tris/acetate, pH 7.4 containing 0.04% (v/v) Triton X-100, incubated for 30 minutes at 37° C. and centrifuged as described above. The Triton X-100 treated membranes were washed with 50 mM Tris/acetate, pH 7.4 and centrifuged at 100,000 g for 15 minutes a total of four times. […] The basic procedure for the receptor subclass binding assays was similar. This general method involved adding the radioligand (12.5 nM L-[^3 H] glutamate; 0.5 nM [^3 H]kainate or 10 nM [^3 H]AMPA) to the appropriate concentration of the test compound and initiating the assay by the addition of ice cold synaptic plasma membranes (0.2-0.45 mg). The binding assays were performed in 1.5 mL centrifuge tubes with the total volume adjusted to 1.0 mL. Additions of test compounds were made in 50 mM Tris/acetate, pH 7.4 and incubations were carried out at 0°-4° C. The incubation time for the NMDA and the AMPA binding assays was 10 minutes, for the kainate binding assay 60 minutes and for the sodium-dependent glutamate binding assay 15 minutes. The AMPA binding assay contained 100 mM KSCN and the sodium-dependent glutamate binding assay contained 150 mM sodium acetate in addition to the previously described reagents. To terminate the incubation, the samples were centrifuged for 15 minutes at 12,000 g and 4° C. in a Beckman Microfuge 12. The supernatant was aspirated and the pelleted membranes dissolved in Beckman BTS-450 tissue solubilizer for a minimum of 6 hours at room temperature. Beckman MP scintillation cocktail containing 7 mL/1 acetic acid was then added and the samples counted on a Beckman LS 5800 or 3801 liquid scintillation counter with automatic corrections for quenching and counting efficiency. Nonspecific binding was defined as the residual binding in the presence of either excess L-glutamate (0.1-0.4 mM), kainate (0.01 mM), or NMDA (0.5 mM), and was 15-25% of the total binding in the NMDA binding assay, 19-27% in the AMPA binding assay, 20-30% in the kainate binding assay and 10-15% in the sodium-dependent binding assay. Radioligand binding to the synaptic plasma membranes was analyzed using Scatchard and Hill transformations and the Ki values of the compounds determined using logit-log transformations. Calculations and regression analysis were performed using templates developed for Lotus 1, 2, 3 as previously described [Pullan, L. M. "Automated Radioligand Receptor Binding Analysis with Templates for Lotus", Computer Appln. Biosci., 3, 131 (1987)]. Binding results are reported in Table I for example compounds of the invention.

AMPA = assay: [3H]AMPA (QUIS) binding assay; design: species or system rat; details: 10 nM [3H]AMPA, 100 mM KSCN, synaptic plasma membranes, pH 7.4, 0-4° C., 10 min; read-out: NMDA Receptor Binding Data, Ki IC50 Binding AMPA
Description: as §1

[1] = target: TCP (1-[1-(2-thienyl)cyclohexyl]piperidine) binding; assay: TCP Modulation Assay; design: species or system rat; details: for pKi: 2 nM tritiated TCP, 0.05 mM L-glutamate, rat brain SPM, read-out: TCP Ki IC50
Description: The effect on the TCP (1-[1-(2-thienyl)cyclohexyl]piperidine) binding was measured in rat brain synaptic membranes (SPM) prepared as previously described [J. B. Monahah & J. Michel; J. Neurochem. […] Prior to their use in the binding assay, frozen SPM were thawed, diluted twenty fold with 50 mM Tris/acetate (pH 7.4 containing 0.04% (v/v) Triton X-100), incubated for 30 min. at 37° C. and centrifuged at 95,000 xg for 15 min. The Triton X-100 treated SPM were washed with 5 mM Tris/HCl, pH 7.4 and centrifuged a total of six times. […] The samples were filtered through glass fiber filters (Schleicher & Schuell #32) which have been pretreated with 0.05% (v/v) polyethylenimine, washed 4 times with 2 ml of ice-cold 5 mM Tris/HCl buffer, and then counted on a Beckman LS 5800 liquid scintillation counter with automatic corrections for quenching and counting efficiency. Inhibition of TCP binding was measured as a decrease in the binding in the presence of 0.05 mM L-glutamate. Non-specific binding was defined as the residual binding in the presence of […] phencyclidine.

cGMP in cerebellum = assay: Assay for Effect on cGMP Levels in Cerebellum; format: in vivo, mouse (Swiss-Webster); details: Mus musculus, sc, 0.5 h; 30 min prior to sacrifice; read-out: Decrease in cGMP ED50
Description: The purpose of this assay is to determine the extent of in vivo bioavailability and the potency as an NMDA antagonist of compound of the invention as compared to known NMDA antagonists, namely, 3(2-carboxypiperizine-4-yl)propyl-1-phosphonic acid (CPP) and cis-4-phosphonomethyl-2-piperidinecarboxylic acid (CGS 19755). Male Swiss-Webster mice (17-24 g were injected sub-cutaneously (s.c.) with compound of the invention and the known NMDA antagonist standards 30 minutes prior to sacrifice by focussed microwave irradiation. Groups consisted of 7-10 mice. Compounds of Ex. #7 was dissolved in isotonic saline and all compounds were administered in a volume of 0.2 ml per mouse. Cerebella samples were extracted in IN HCl. Hydrochloric acid in extracts of the cerebellum were freeze-dried for assay of cGMP with a commercial RIA kit (NEN). Statistics (Dunett's t-test) were performed as described previously [P. L. Wood et al., Neurochem., 19, 975-982 (1980)]. ED50 values were calculated from log-logit transformation of the dose-response data.

NMDA = details: D. E. Murphy et al, J. Pharmacol. Exp. Ther. 1987; cited from earlier work

| pKi (NMDA receptor; pH 7.4, 0-4° C., 10 min) | pKi (AMPA) | SMILES | further results |
| --- | --- | --- | --- |
| 5.35 | < 3.52 | O=C(O)c1cn2cccc(CP(=O)(O)O)c2n1 [Example 23, 8-(phosphonomethyl)imidazo[1,2-a]pyridine-2-carboxylic acid] | pKi (NMDA receptor; Second batch): 4.98; pKi ([1]; pH 7.4, 25° C., 60 min): 4.85; pKi ([1]; second batch): 5.11 |
| < 4.00 | < 3.52 | O=C(O)c1cn2cc(CP(=O)(O)O)ccc2n1 [Example 13, 6-(phosphonomethyl)imidazo[1,2-a]pyridine-2-carboxylic acid] | – |
| < 4.00 | < 3.52 | O=C(O)c1cn2ccc(CP(=O)(O)O)cc2n1 [Example 18, 7-(phosphonomethyl)imidazo[1,2-a]pyridine-2-carboxylic acid] | – |
| < 5.00 | – | O=C(O)c1cn2c(P(=O)(O)O)cccc2n1 [Example 53, 5-phosphonoimidazo[1,2-a]pyridine-2-carboxylic acid] | – |
| – | – | O=C(O)C1CN(CCCP(=O)(O)O)CCN1 (stereo not drawn) [CPP, 3-(2-carboxypiperazin-4-yl)propyl-1-phosphonic acid, reference compound] | ED50 (cGMP in cerebellum): 7.4 mg/kg; NMDA antagonism (in words) (NMDA): potent and selective NMDA antagonist |
| < 4.00 | < 3.52 | O=C(O)c1cn2c(CP(=O)(O)O)c(Cl)ccc2n1 [Example 30, 6-chloro-5-(phosphonomethyl)imidazo[1,2-a]pyridine-2-carboxylic acid] | – |
| 5.24 | < 3.52 | O=C(O)c1cn2c(C(O)P(=O)(O)O)cccc2n1 (stereo not drawn) [Example 57, 5-(hydroxyphosphonomethyl)imidazo[1,2-a]pyridine-2-carboxylic acid, monohydrochloride] | TCP Binding Data (result in words) ([1]; no number given): Antag. |
| – | – | O=C(O)[C@H]1C[C@@H](CP(=O)(O)O)CCN1 (relative stereo) [CGS 19755, cis-4-phosphonomethyl-2-piperidinecarboxylic acid, reference compound] | ED50 (cGMP in cerebellum): 1 mg/kg |

| SMILES | pKi (NMDA receptor; pH 7.4, 0-4° C., 10 min) | pKi (AMPA) | further results |
| --- | --- | --- | --- |
| Cc1ccc(P(=O)(O)O)c2nc(C(=O)O)cn12 [Example 49, 5-methyl-8-phosphonoimidazo[1,2-a]pyridine-2-carboxylic acid] | < 5.00 | – | – |
| Cc1c(C(=O)O)nc2c(CP(=O)(O)O)cccn12 [Example 67, 3-methyl-8-(phosphonomethyl)imidazo[1,2-a]pyridine-2-carboxylic acid, monohydrochloride] | < 4.00 | < 3.52 | – |
